Results from publication PMC5580309, “Molecular-scale features that govern the effects of O-glycosylation on a carbohydrate-binding module” (Chemical Science, 2015).
Bridge positions count the residues as written; N and C are the ends. Square brackets hold non-standard residues; d marks the D form. Peptide text beside a SMILES is read from it. * marks the point of attachment. X4 = OC[C@H]1O[C@H](OC[C@H]2O[C@H](*)[C@@H](O)[C@@H](O)[C@@H]2O)[C@H](O)[C@@H](O)[C@@H]1O; αMan = OC[C@H]1O[C@H](*)[C@@H](O)[C@@H](O)[C@@H]1O; hSer = N[C@@H](CCO)C(=O)O

Molecular target: T1, thermolysin (Bacillus thermoproteolyticus, UniProt P00800)
T1 sequence (P00800 233-548): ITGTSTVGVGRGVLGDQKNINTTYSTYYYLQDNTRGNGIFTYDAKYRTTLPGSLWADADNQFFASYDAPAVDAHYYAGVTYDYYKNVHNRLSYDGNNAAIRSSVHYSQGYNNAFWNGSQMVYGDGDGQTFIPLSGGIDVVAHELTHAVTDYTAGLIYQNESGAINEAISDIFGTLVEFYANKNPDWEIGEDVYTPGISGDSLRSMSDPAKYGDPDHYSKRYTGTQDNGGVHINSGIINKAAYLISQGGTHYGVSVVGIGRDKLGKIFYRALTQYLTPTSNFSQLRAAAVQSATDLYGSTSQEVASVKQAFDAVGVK
Experiment: Proteolytic stability: half-life to thermolysin degradation
Format: in vitro ADME
Settings: for Change in Half-Life to Thermolysin Degradation: glyco-variant minus its corresponding unglycosylated CBM (e.g. 2-1), *** not used in the correlation plot; for half-life: thermolysin (isolated protease), thermolysin degradation, mean of three trials ± SD, procedures as described previously (ESI ref 18)
Method: All error bars reported are standard deviations of data achieved from three separate trials.
cellulose that were determined in accordance with our procedures as described previously 18.
The results are presented as mean of three trials ± SD. *Denotes an averaged value of four trials

Row | Compound | Change in Half-Life to Thermolysin Degradation [min] | half-life [min]
1 | CC[C@H](C)[C@@H]1NC(=O)CNC(=O)CNC(=O)[C@@H](NC(=O)[C@H](CCC(N)=O)NC(=O)CNC(=O)[C@H](Cc2ccc(O)cc2)NC(=O)[C@H](Cc2c[nH]cn2)NC(=O)[C@@H](NC(=O)[C@H](CCC(N)=O)NC(=O)[C@@H](N)[C@@H](C)O)[C@@H](C)O[C@H]2O[C@H](CO)[C@@H](O)[C@H](O)[C@@H]2O)CSSC[C@@H]2NC(=O)[C@H]([C@@H](C)O)NC(=O)[C@H]([C@@H](C)O)NC(=O)CNC(=O)[C@H](CO)NC(=O)[C@H](C)NC(=O)[C@H](CSSC[C@@H](C(=O)N[C@@H](CC(C)C)C(=O)O)NC(=O)[C@H](CCC(N)=O)NC(=O)[C@H](CO)NC(=O)[C@H](Cc3ccc(O)cc3)NC(=O)[C@H](Cc3ccc(O)cc3)NC(=O)[C@@H]3CCCN3C(=O)[C@H](CC(N)=O)NC(=O)[C@H](CC(C)C)NC(=O)[C@H](C(C)C)NC(=O)[C@H](CCC(N)=O)NC2=O)NC(=O)[C@H](C(C)C)NC(=O)[C@H]([C@@H](C)O)NC(=O)[C@@H]2CCCN2C(=O)CNC(=O)[C@H](CO)NC(=O)[C@H](Cc2ccc(O)cc2)NC(=O)CNC1=O [CBM variant 13] (H-TQT(αMan)HYGQCGGIGYSGPTVCASGTTCQVLNPYYSQCL-OH; disulfide 8-25, 19-35) | 46.8 | 68.4 ± 10.8
2 | CC[C@H](C)[C@@H]1NC(=O)CNC(=O)CNC(=O)[C@@H](NC(=O)[C@H](CCC(N)=O)NC(=O)CNC(=O)[C@H](Cc2ccc(O)cc2)NC(=O)[C@H](Cc2c[nH]cn2)NC(=O)[C@H](CO[C@H]2O[C@H](CO)[C@@H](O)[C@H](O)[C@@H]2O)NC(=O)[C@H](CCC(N)=O)NC(=O)[C@H](C)N)CSSC[C@@H]2NC(=O)[C@H]([C@@H](C)O)NC(=O)[C@H]([C@@H](C)O)NC(=O)CNC(=O)[C@H](CO)NC(=O)[C@H](C)NC(=O)[C@H](CSSC[C@@H](C(=O)N[C@@H](CC(C)C)C(=O)O)NC(=O)[C@H](CCC(N)=O)NC(=O)[C@H](CO)NC(=O)[C@H](Cc3ccc(O)cc3)NC(=O)[C@H](Cc3ccc(O)cc3)NC(=O)[C@@H]3CCCN3C(=O)[C@H](CC(N)=O)NC(=O)[C@H](CC(C)C)NC(=O)[C@H](C(C)C)NC(=O)[C@H](CCC(N)=O)NC2=O)NC(=O)[C@H](C(C)C)NC(=O)[C@H]([C@@H](C)O)NC(=O)[C@@H]2CCCN2C(=O)CNC(=O)[C@H](CO)NC(=O)[C@H](Cc2ccc(O)cc2)NC(=O)CNC1=O [CBM variant 5] (H-AQS(αMan)HYGQCGGIGYSGPTVCASGTTCQVLNPYYSQCL-OH; disulfide 8-25, 19-35) | 34.8 | 44.4 ± 7.2
3 | CC[C@H](C)[C@@H]1NC(=O)CNC(=O)CNC(=O)[C@@H](NC(=O)[C@H](CCC(N)=O)NC(=O)CNC(=O)[C@H](Cc2ccc(O)cc2)NC(=O)[C@H](Cc2c[nH]cn2)NC(=O)[C@H](CCO[C@H]2O[C@H](CO)[C@@H](O)[C@H](O)[C@@H]2O)NC(=O)[C@H](CCC(N)=O)NC(=O)[C@@H](N)[C@@H](C)O)CSSC[C@@H]2NC(=O)[C@H]([C@@H](C)O)NC(=O)[C@H]([C@@H](C)O)NC(=O)CNC(=O)[C@H](CO)NC(=O)[C@H](C)NC(=O)[C@H](CSSC[C@@H](C(=O)N[C@@H](CC(C)C)C(=O)O)NC(=O)[C@H](CCC(N)=O)NC(=O)[C@H](CO)NC(=O)[C@H](Cc3ccc(O)cc3)NC(=O)[C@H](Cc3ccc(O)cc3)NC(=O)[C@@H]3CCCN3C(=O)[C@H](CC(N)=O)NC(=O)[C@H](CC(C)C)NC(=O)[C@H](C(C)C)NC(=O)[C@H](CCC(N)=O)NC2=O)NC(=O)[C@H](C(C)C)NC(=O)[C@H]([C@@H](C)O)NC(=O)[C@@H]2CCCN2C(=O)CNC(=O)[C@H](CO)NC(=O)[C@H](Cc2ccc(O)cc2)NC(=O)CNC1=O [CBM variant 19] (H-TQ[hSer](αMan)HYGQCGGIGYSGPTVCASGTTCQVLNPYYSQCL-OH; disulfide 8-25, 19-35) | 2.4 | 20.4 ± 4.2
4 | CC[C@H](C)[C@@H]1NC(=O)CNC(=O)CNC(=O)[C@@H](NC(=O)[C@H](CCC(N)=O)NC(=O)CNC(=O)[C@H](Cc2ccc(O)cc2)NC(=O)[C@H](Cc2c[nH]cn2)NC(=O)[C@H](CO[C@H]2O[C@H](CO[C@H]3O[C@H](CO)[C@@H](O)[C@H](O)[C@H]3O)[C@@H](O)[C@H](O)[C@@H]2O)NC(=O)[C@H](CCC(N)=O)NC(=O)[C@@H](N)[C@@H](C)O)CSSC[C@@H]2NC(=O)[C@H]([C@@H](C)O)NC(=O)[C@H]([C@@H](C)O)NC(=O)CNC(=O)[C@H](CO)NC(=O)[C@H](C)NC(=O)[C@H](CSSC[C@@H](C(=O)N[C@@H](CC(C)C)C(=O)O)NC(=O)[C@H](CCC(N)=O)NC(=O)[C@H](CO)NC(=O)[C@H](Cc3ccc(O)cc3)NC(=O)[C@H](Cc3ccc(O)cc3)NC(=O)[C@@H]3CCCN3C(=O)[C@H](CC(N)=O)NC(=O)[C@H](CC(C)C)NC(=O)[C@H](C(C)C)NC(=O)[C@H](CCC(N)=O)NC2=O)NC(=O)[C@H](C(C)C)NC(=O)[C@H]([C@@H](C)O)NC(=O)[C@@H]2CCCN2C(=O)CNC(=O)[C@H](CO)NC(=O)[C@H](Cc2ccc(O)cc2)NC(=O)CNC1=O [CBM variant 30] (H-TQS(X4)HYGQCGGIGYSGPTVCASGTTCQVLNPYYSQCL-OH; disulfide 8-25, 19-35) | 33 | 46.8 ± 6.6
5 | CC[C@H](C)[C@@H]1NC(=O)CNC(=O)CNC(=O)[C@@H](NC(=O)[C@H](CCC(N)=O)NC(=O)CNC(=O)[C@H](Cc2ccc(O)cc2)NC(=O)[C@H](Cc2c[nH]cn2)NC(=O)[C@H](CS)NC(=O)[C@H](CCC(N)=O)NC(=O)[C@@H](N)[C@@H](C)O)CSSC[C@@H]2NC(=O)[C@H]([C@@H](C)O)NC(=O)[C@H]([C@@H](C)O)NC(=O)CNC(=O)[C@H](CO)NC(=O)[C@H](C)NC(=O)[C@H](CSSC[C@@H](C(=O)N[C@@H](CC(C)C)C(=O)O)NC(=O)[C@H](CCC(N)=O)NC(=O)[C@H](CO)NC(=O)[C@H](Cc3ccc(O)cc3)NC(=O)[C@H](Cc3ccc(O)cc3)NC(=O)[C@@H]3CCCN3C(=O)[C@H](CC(N)=O)NC(=O)[C@H](CC(C)C)NC(=O)[C@H](C(C)C)NC(=O)[C@H](CCC(N)=O)NC2=O)NC(=O)[C@H](C(C)C)NC(=O)[C@H]([C@@H](C)O)NC(=O)[C@@H]2CCCN2C(=O)CNC(=O)[C@H](CO)NC(=O)[C@H](Cc2ccc(O)cc2)NC(=O)CNC1=O [CBM variant 14] (H-TQCHYGQCGGIGYSGPTVCASGTTCQVLNPYYSQCL-OH; disulfide 8-25, 19-35) |  | 10.8 ± 2.4
